Patent publication US7341850B2, “Human LXRα variants” (Wyeth, priority 2003, dated 2008)

Legend:
LXRα-64 mRNA = experiment: Regulation of LXRα-64 mRNA expression in differentiated THP-1 cells (real-time RT-PCR); format: cell-based, human; conditions: THP-1 cells differentiated with 150 nM phorbol ester for 3 days; 10 μM T0901317, 10 μM GW 3965, 10 μM Ciglitazone or 1 μM 9RA; vs vehicle; FIG. 8A
Method: Experiments were performed to determine whether agonists of wild type LXRα could also regulate the expression of LXRα variants. In these experiments, THP-1 cells were obtained from the American Type Culture Collection (ATCC) and cultured in RPMI medium containing 10% fetal bovine serum (FBS). For gene expression analysis in differentiated THP-1 cells, the THP1 cells were incubated in RPMI medium supplemented with 10% lipoprotein-deficient serum (LPDS) (Intracel Corp, Rockville, Md.) and treated with 150 nM phorbol ester for 3 days followed by treatment with LXR, RXR, or Peroxisome Proliferator-activated Receptor γ (PPARγ) agonist compounds, specifically with vehicle only (control), 10 μM T0901317, 10 μM GW 3965, 10 μM Ciglitazone, or 1 μM 9RA.

LXRα-42 mRNA = experiment: Regulation of LXRα-42 mRNA expression in differentiated THP-1 cells (real-time RT-PCR); format: cell-based, human; conditions: THP-1 cells differentiated with 150 nM phorbol ester for 3 days; 10 μM T0901317, 10 μM GW 3965, 10 μM Ciglitazone or 1 μM 9RA; vs vehicle; FIG. 8B
Method: Each amplification mixture (50 μL) contained 50 ng of cDNA, 400 nM forward primer (SEQ ID NO:11), 400 nM reverse primer (SEQ ID NO:12), 200 nM dual-labeled fluorogenic probe (SEQ ID NO:13) (Applied Biosystems), 5.5 mM MgCl2, and 1.25 units Gold Taq (Applied Biosystems). The primers amplify a portion of the LXRα sequences that is about 80 nucleotides in length. The PCR thermocycling parameters were 95° C. for 10 minutes, and 40 cycles at 95° C. for 15 seconds, and 60° C. for 1 minute. Together with the samples and no-template controls, a serially diluted cDNA standard was analyzed in parallel. All samples were analyzed for human glyceraldehyde-3-phosphate dehydrogenase (GAPDH) expression in parallel in the same run using probe and primers from predeveloped assays for GAPDH (Applied Biosystems). All of the target gene expression was normalized to the expression of GAPDH. Quantitative analysis was performed using the threshold procedure, following the manufacturer's protocol (Perkin-Elmer), and relative amounts were calculated from the standard curve.
Experiments were performed to determine whether agonists of wild type LXRα could also regulate the expression of LXRα variants. In these experiments, THP-1 cells were obtained from the American Type Culture Collection (ATCC) and cultured in RPMI medium containing 10% fetal bovine serum (FBS). For gene expression analysis in differentiated THP-1 cells, the THP1 cells were incubated in RPMI medium supplemented with 10% lipoprotein-deficient serum (LPDS) (Intracel Corp, Rockville, Md.) and treated with 150 nM phorbol ester for 3 days followed by treatment with LXR, RXR, or Peroxisome Proliferator-activated Receptor γ (PPARγ) agonist compounds, specifically with vehicle only (control), 10 μM T0901317, 10 μM GW 3965, 10 μM Ciglitazone, or 1 μM 9RA. The primers and TaqMan probe for the real-time RT-PCR was described as in Example 4.

ABCA1 = ABCA1 expression in transfected HEK 293 cells (real-time quantitative PCR); format: cell-based, human; conditions: cotransfected with RXRα, FIG. 12
Method: (§1) In these experiments, coding regions of human LXRα, RXRα, and the LXRα variant (LXRα-64) were amplified by RT-PCR. The PCR products were subcloned into pCMV/myc/nuc expression vectors (Invitrogen, Carlsbad, Calif.) and used in the experiments described infra.
(§2) Expression experiments were conducted in HEK 293 cells that were propagated in Dulbecco's modified Eagle's medium (DMEM) containing 10% FBS. The cultured cells were transfected with either the expression vector containing a sequence encoding LXRα (wild type) or an expression vector encoding LXRα-64. All samples were co-transfected with an expression vector encoding an RXRα sequence. Transfections were performed in triplicate in 24 well plates using the Lipofectamine 2000 (Invitrogen, Carlsbad, Calif.). Each well was transfected with 200 ng of the LXRα expression vector (LXRα), the LXRα-64 expression vector (L64), or control plasmid (pCMV) along with 200 ng of human RXRα expression vector (RXRα). Additions to each well were adjusted to contain constant amounts of DNA and of pCMV expression vector. […] The levels of gene expression were determined with Real-time quantitative PCR assays using an Applied Biosystems 7700 sequence detector.

[1] = tested on: pGL3-LXRα-Luc reporter (LXR response element of LXRα promoter); experiment: LXRα promoter (LXRE) luciferase reporter gene assay in transfected HEK 293 cells; format: cell-based, human; conditions: variant co-transfected with hRXRα and reporter, 10 μM T0901317, 24 hours, compared with co-transfected native LXRα, FIG. 9
Text: Human LXRα promoter (SEQ ID NO:14) was amplified by PCR using information from the published LXRα genomic structure and sequence (GenBank accession no. AC090589. A fragment spanning from -2660 to -2363 (relative to the transcription start site from exon 1) of LXRα promoter which contains the LXR response element ([NT] ID NO:20) ([…] et al. 2001, Mol. Cell. Biol. 21, 7558-7568 and Whitney et al., 2001, J. Biol. Chem. 276, 43509-43515) of LXRα was subcloned into pGL3 basic plasmid to create pGL-3-LXRα-Luc. The GenBank accession number of the LXRα “native” sequence used as a reference for the experiments and analysis disclosed herein is Genbank accession number for human LXRα is BC008819. Coding regions of human LXRα, and RXRα (GenBank accession number BC007925) were amplified by RT-PCR according to the sequences in GenBank and subcloned into pCMV/myc/nuc expression vectors (Invitrogen, Carlsbad, Calif.). The new LXRα-[…] coding region was subcloned into pCMV/myc/nuc expression vectors. HEK 293 cells were grown in Dulbecco's modified Eagle's medium (DMEM) containing 10% FBS. Transfections were performed in triplicate in 24 well plates using Lipofectamine 2000 (Invitrogen). […] The cells were harvested, analyzed, and the extracts were assayed for luciferase and β-galactosidase activity in a microplate luminometer/photometer reader (Lucy-1; Anthos, Salzburg, Austria). […]

[2] = tested on: SREBP-c1 (an LXR target gene); experiment: SREBP-1C expression in transfected HEK 293 cells (real-time quantitative PCR); format: cell-based; conditions: cotransfected with human RXRα, TO901317 and/or 9RA, 48 hours, compared to wild type LXRα with RXRα or empty vector with RXRα, FIG. 11
Method: as §1, §2

Molecule: CC1=C(/C=C/C(C)=C\C=C\C(C)=C\C(=O)O)C(C)(C)CCC1 [9-cis retinoic acid]
- expression of LXRα-64 mRNA (LXRα-64 mRNA): increased
- expression of LXRα-42 mRNA (LXRα-42 mRNA): increased

Molecule: O=C(O)Cc1cccc(OCCCN(Cc2cccc(C(F)(F)F)c2Cl)CC(c2ccccc2)c2ccccc2)c1 [GW3965, 3-(3-(2-chloro-3-trifluoromethylbenzyl-2,2-diphenylethylamino)propoxy)phenylacetic acid]
- expression of LXRα-64 mRNA (LXRα-64 mRNA): increased
- expression of LXRα-42 mRNA (LXRα-42 mRNA): increased

Molecule: O=S(=O)(c1ccccc1)N(CC(F)(F)F)c1ccc(C(O)(C(F)(F)F)C(F)(F)F)cc1 [T0901317, N-(2,2,2,-trifluoro-ethyl)-n-[4-(2,2,2,-trifluoro-1-hydroxy-1-trifluoromethyl-ethyl)-phenyl]-benzenesulfonamide]
- expression of LXRα-64 mRNA (LXRα-64 mRNA): increased
- expression of LXRα-42 mRNA (LXRα-42 mRNA): increased

B1: LXRα-64: human LXRα splice variant with an extra 64 amino acids in its ligand binding domain (SEQ ID NO:4) (protein, listed as Homo sapiens)
chain: MSLWLGAPVPDIPPDSAVELWKPGAQDASSQAQGGSSCILREEARMPHSAGGTAGVGLEAAEPTALLTRAEPPSEPTEIRPQKRKKGPAPKMLGNELCSVCGDKASGFHYNVLSCEGCKGFFRRSVIKGAHYICHSGGHCPMDTYMRRKCQECRLRKCRQAGMREECVLSEEQIRLKKLKRQEEEQAHATSLPPRRSSPPQILPQLSPEQLGMIEKLVAAQQQCNRRSFSDRLRVTPWPMAPDPHSREARQQRFAHFTELAIVSVQEIVDFAKQLPGFLQLSREDQIALLKTSAIEVAGEGQGMKGEAEWDYLWEGPPDIELGEPNLLGSRDEENRPPWKRPCSKTSPPSPRLRFAACVQVMLLETSRRYNPGSESITFLKDFSYNREDFAKAGLQVEFINPIFEFSRAMNELQLNDAEFALLIAISIFSADRPNVQDQLQVERLQHTYVEALHAYVSIHHPHDRLMFPRMLMKLVSLRTLSSVHSEQVFALRLQDKKLPPLLSEIWDVHE
- LXR as well as LXR+RXR-ligand dependent induction of ABCA1 expression (ABCA1; TO901317 and/or 9RA, 48 hours, compared to native LXRα and RXRα or empty vector with RXRα): less
- basal expression of ABCA1 (ABCA1; no ligand): not affected
- LXR ligand-dependent activation of reporter gene [1]: sharply decreased
- basal, LXR ligand-dependent, and LXR+RXR ligand-dependent induction of SREBP-c1 expression [2]: sharply decreased
